The values that follow come from the supplement of paper PMC3493320.

pIC50: −log10 of the molar value.

This assay has as its system NCI-H295R. Briefly: IC50 (antiproliferative, ATP content). The following applies: 48 h. A digest of the protocol: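 Adrenocortical carcinoma cells were plated at 1500 per well in 1536-well plates in serum-free DMEM with ITS supplement, left overnight, then given library compounds by pin transfer at 8 final concentrations spanning 0.6 nM to 46 µM and held 48 h at 37 °C, 5% CO2. ATP was measured as CellTiter-Glo luminescence after 20 min at room temperature and scaled between vehicle and positive-control wells. A four-parameter logistic model was fitted to each series. The IC50 was taken from these fits, and compounds without a concentration response were recorded as above the top dose.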
For the compound `CCN(CC)C(=O)C(Cl)=C(C)OP(=O)(OC)OC`, the pIC50 is under 4.34. `Nc1cc(N2CCCCC2)nc(N)[n+]1[O-]` gave a pIC50 of under 4.34.

`OC[C@H]1OC(O)[C@H](O)[C@@H](O)[C@H]1O` (some centres not stated) had a negative-log IC50 (pIC50) of under 4.34. `CC(NC(C)(C)C)C(=O)c1cccc(Cl)c1.Cl` (configuration not stated) showed a negative logarithm of the IC50 (pIC50) of under 4.34. Compound `CCN[C@H]1C[C@H](C)S(=O)(=O)c2sc(S(N)(=O)=O)cc21.Cl` had a pIC50 of under 4.34. Then `CN[C@H]1C[C@@H](N)[C@H](O)[C@@H](O[C@@H]2O[C@H](CO)[C@H](O)[C@@H]3OC4(O[C@H]23)O[C@H]([C@H](N)CO)[C@H](O)[C@H](O)[C@H]4O)[C@@H]1O` (some centres not stated), with under 4.34; and `FC(F)(F)C(F)(F)C(F)(F)C(F)(F)C(F)(F)F`, with under 4.34; and `CC(=O)NS(=O)(=O)c1ccc(N)cc1`, with under 4.34. The result for `COc1ccc2cc1Oc1cc3c(cc1OC)CC[N+](C)(C)[C@H]3Cc1ccc(cc1)Oc1c(OC)c(OC)cc3c1[C@@H](C2)[N+](C)(C)CC3.[I-].[I-]` reads under 4.34; that for `CC1(C)C(C=C(Cl)Cl)C1C(=O)OCc1cccc(Oc2ccccc2)c1` (configuration not stated), under 4.34; that for `CN1C(=S)CN=C(c2ccccc2)c2cc(Cl)ccc21`, under 4.34.

For the compound `NC(=O)N[C@@H](CCC(=O)O)C(=O)O`, the pIC50 is under 4.34. Then `Cl.c1ccc(CC2=NCCN2)cc1`, with under 4.34; and `CN1C[C@@H](NS(=O)(=O)N(C)C)C[C@@H]2c3cccc4c3c(cn4C)C[C@H]21`, with under 4.34. Then `O=C1OC2(c3ccc([O-])cc3Oc3cc([O-])ccc32)c2ccccc21.[Na+].[Na+]`, with under 4.34; and `CCCCCCCCCC(=O)O[C@H]2CC[C@H]3[C@@H]4CC\C1=C\C(=O)CC[C@@H]1[C@H]4CC[C@]23C`, with under 4.34.

In turn, `O=C(NCCc1c[nH]c2ccccc12)c1cccnc1` gave a negative logarithm of the IC50 (pIC50) of under 4.34. For `Cl.OC(CCN1CCCCC1)(c1ccccc1)C1CC2C=CC1C2` (configuration not stated), the pIC50 was under 4.34. Consider `NC[C@H]1O[C@H](O[C@H]2[C@H](O[C@@H]3O[C@H](CO)[C@@H](O)[C@H]3O)C(O)[C@H](N)C[C@@H]2N)[C@H](N)[C@@H](O)[C@@H]1O.O=S(=O)(O)O` (some centres not stated), for which the pIC50 was under 4.34. Then `C[N+](C)(C)CC(=O)O.[Cl-]`, with under 4.34; and `COc1c(O[C@@H]2O[C@H](CO)[C@@H](O)[C@H](O)[C@H]2O)cc2c(c1OC)-c1ccc(SC)c(=O)cc1[C@@H](NC(C)=O)CC2`, with under 4.34.

As for `COc1cc(C(=S)N2CCOCC2)ccc1O`, the pIC50 is under 4.34.

In the case of `CN(C)c1nc(N(C)C)nc(N(C)C)n1`, the pIC50 is under 4.34. As for `O=C(O)CCC/C=C\C[C@@H]1[C@@H](/C=C/[C@@H](O)COc2cccc(C(F)(F)F)c2)[C@H](O)C[C@@H]1O`, the negative-log IC50 (pIC50) is under 4.34.

Take `CCCC(CCC)C(=O)O`: the pIC50 is under 4.34. Then `CC(C)[N+](C)(C)CC(O)COc1cccc2ccccc12.[Cl-]` (configuration not stated), with under 4.34; and `Cc1ccc(S(=O)(=O)[O-])cc1C.[Na+]`, with under 4.34; and `COc1nccnc1NS(=O)(=O)c1ccc(N)cc1`, with under 4.34. Regarding `Cc1scc2c1N(C(=O)CN1CCN(C)CC1)c1ccccc1NC2=O`, the negative logarithm of the IC50 (pIC50) is under 4.34.

`Cc1c(O)c(=O)ccn1C` gave a pIC50 of under 4.34. The result for `CCCCCC(N)=O` reads under 4.34; that for `CCCOc1cc(N)ccc1C(=O)OCCN(CC)CC.Cl`, under 4.34. The result for `O=C1CC2(CCCC2)CC(=O)N1CCCCN1CCN(c2ncccn2)CC1` reads under 4.34; that for `[Na+].C/C(C)=C\Cc1cc(ccc1O)C(=O)N\C3=C(/[O-])c4ccc(O[C@@H]2OC(C)(C)[C@H](OC)[C@@H](OC(N)=O)[C@H]2O)c(C)c4OC3=O`, under 4.34; that for `CCN(C(C)=O)c1cccc(-c2ccnc3c(C#N)cnn23)c1`, under 4.34. As for `O=C(NCCCN1CCOCC1)c1ccc(Cl)cc1`, the negative logarithm of the IC50 (pIC50) was under 4.34. Consider `CC(C)(N)Cc1ccc(Cl)cc1.Cl`, for which the pIC50 was under 4.34. The result for `Cc1ccsc1/C=C/C1=NCCCN1C.O=C(O)[C@@H](O)[C@H](O)C(=O)O` reads under 4.34; that for `NS(=O)(=O)c1cc2c(cc1C(F)(F)F)NC(Cc1ccccc1)NS2(=O)=O` (configuration not stated), under 4.34; that for `CN1CCC[C@@H]1c1cccnc1`, under 4.34. Then `CCCCCCCCOc1ccccc1C(=O)Nc1ccc(C(=O)OCC[N+](C)(CC)CC)cc1.[Br-]`, with under 4.34; and `NS(=O)(=O)c1cc(C(=O)O)cc(N2CCCC2)c1Oc1ccccc1`, with under 4.34.

With `Cc1nnc2n1-c1ccc(Cl)cc1C(c1ccccc1)=NC2`, the pIC50 was under 4.34. Then `O[C@]([C@H]3CN(CCC3)CC/C=C(C2=C(C)C=CS2)/C1=C(C)C=CS1)=O.Cl`, with under 4.34; and `Cc1cc(=O)oc2cc(O)ccc12`, with under 4.34; and `Cc1c(Cl)cccc1Nc1ncccc1C(=O)O`, with under 4.34. `CNC(C)(C)Cc1ccccc1.CNC(C)(C)Cc1ccccc1.O=S(=O)(O)O` gave a negative-log IC50 (pIC50) of under 4.34.

`CCN(CC)CCOC(=O)C(Cc1cccc2ccccc12)CC1CCCO1.O=C(O)C(=O)O` (configuration not stated) had a pIC50 of under 4.34. Then `O=[C@]([C@@H]3N([C@@H]2SC(C)3C)C([C@H]2NC([C@@H](C1=CC=C(C=C1)O)N)=O)=O)O`, with under 4.34; and `Cc1ccc(S(=O)(=O)NC(=O)N[C@@H](C)Cc2ccccc2)cc1`, with under 4.34. Compound `CCCCCCCCCCCCCCCC(=O)OC(C)C` showed a negative logarithm of the IC50 (pIC50) of under 4.34. Regarding `CCCCC(O)c1ccccc1` (configuration not stated), the negative logarithm of the IC50 (pIC50) was under 4.34. The result for `CC(=O)OCC(=O)[C@@]1(O)[C@H](C)C[C@H]2[C@@H]3CCC4=CC(=O)C=C[C@]4(C)[C@@]3(F)[C@@H](O)C[C@@]21C` reads under 4.34.

`CS(=O)(=O)O.N[C@@H]1[C@H]2CN(c3nc4c(cc3F)c(=O)c(C(=O)O)cn4-c3ccc(F)cc3F)C[C@@H]12`: the negative-log IC50 (pIC50) was under 4.34. Then `N[C@@H]1CONC1=O`, with under 4.34. In the case of `O[C@H]1[C@H](O)[C@@H](O)[C@H](O)[C@@H](O)[C@H]1O`, the negative logarithm of the IC50 (pIC50) was under 4.34.

With `CCCC(C)C1(CC)C(=O)N=C([S-])NC1=O.[Na+]` (configuration not stated), the pIC50 is under 4.34. With `Nc1ccc(S(=O)(=O)Nc2ccc(Cl)nn2)cc1`, the negative-log IC50 (pIC50) is under 4.34. Then `CC(=O)Oc1ccccc1C(=O)O`, with under 4.34; and `Cc1cc(C(C)(C)C)cc(C)c1CC1=NCCN1.Cl`, with under 4.34; and `COC(=O)CCC(=O)CN.Cl`, with under 4.34.

Compound `CC(=O)O[C@H]1C[C@@H]2CC[C@@H]3[C@H](CC[C@@]4(C)[C@H]3C[C@H]([N+]3(C)CCCCC3)[C@@H]4OC(C)=O)[C@@]2(C)C[C@@H]1[N+]1(C)CCCCC1.[Br-].[Br-]` had a negative-log IC50 (pIC50) of under 4.34.

Compound `NCCc1ccc(O)c(O)c1` had a negative-log IC50 (pIC50) of under 4.34. Take `O=C(O)[C@H]1CN(C/C=C/P(=O)(O)O)CCN1`: the pIC50 was under 4.34. Consider `C#CCN[C@@H]1CCc2ccccc21.CS(=O)(=O)O`, for which the pIC50 is under 4.34. With `CCCCCCCCCCCCCCCCCC(=O)OC[C@@H](O)[C@H]1OC[C@H](O)[C@H]1O`, the pIC50 is under 4.34. `CC(C)(C)NCC(O)c1ccc(O)c(CO)c1` (configuration not stated) gave a negative logarithm of the IC50 (pIC50) of under 4.34. Consider `O=C([C@H]3N[C@H]([C@](OCC)=O)CCC2=CC=CC=C2)N(CC(O)=O)C[C@H](SC3)[C@@]1=CC=CS1.Cl`, for which the negative logarithm of the IC50 (pIC50) is under 4.34. As to `IC(I)I`, the pIC50 was under 4.34. For `Clc1ccc(C2(Cn3cncn3)OCCO2)c(Cl)c1`, the pIC50 is under 4.34. The result for `CC(=O)NCCCCCC(=O)O` reads under 4.34.

Compound `CC1CCC(NC(=O)N(CCCl)N=O)CC1` (configuration not stated) had a pIC50 of under 4.34. Then `CCC(C)(C)C(=O)O[C@H]1C[C@@H](C)C=C2C=C[C@H](C)[C@H](CC[C@@H]3C[C@@H](O)CC(=O)O3)[C@H]21`, with under 4.34. The result for `Cl.O=C(Nc1ccccc1)OCC(CN1CCCCC1)OC(=O)Nc1ccccc1` (configuration not stated) reads under 4.34; that for `C[C@@H](O)[C@H](N)C(=O)O`, under 4.34. Then `CCN(CC)CCNC(=O)COc1ccc(OC)cc1.Cl`, with under 4.34. The compound `CCCCc1cc2ccccc2c(OCCN(C)C)n1.Cl` showed a pIC50 of under 4.34. Then `CCOC(=O)c1cnc2cc(OCC(C)C)c(OCC(C)C)cc2c1O`, with under 4.34. Consider `C=CCc1cc(OC)c(O)c(C(=O)NCCO)c1`, for which the pIC50 was under 4.34.

Consider `COc1cc(C)nc(-n2nc(C)cc2OC)n1`, for which the negative logarithm of the IC50 (pIC50) was under 4.34. The result for `NS(=O)(=O)c1cc(Cl)c(Cl)c(S(N)(=O)=O)c1` reads under 4.34; that for `O=P(O)(O)CP(=O)(O)O`, under 4.34; that for `O=C(O)c1ccc(OCCCOc2ccc(C(=O)O)cc2)cc1`, under 4.34.

`O=C(O)[C@@H]1C[C@H](CP(=O)(O)O)CCN1` showed a negative-log IC50 (pIC50) of under 4.34. Then `COC(=O)[C@@H](N)CCCN/C(N)=N/[N+](=O)[O-]`, with under 4.34; and `C[C@]12CC[C@@H]3c4ccc(OC(=O)c5ccccc5)cc4CC[C@H]3[C@@H]1CC[C@@H]2O`, with under 4.34; and `COc1cc(O)c(C(=O)c2ccccc2)cc1S(=O)(=O)O`, with under 4.34. In turn, `CN(C)CCC(O)(c1ccccc1)c1ccccc1Cl` (configuration not stated) showed a negative-log IC50 (pIC50) of under 4.34. Then `C[C@]12CCC(=O)C(O)=C1CC[C@@H]1[C@@H]2CC[C@]2(C)C(=O)CC[C@@H]12`, with under 4.34; and `CC(=O)Oc1cccc(O)c1`, with under 4.34; and `Cc1c(C(C)C)c(=O)n(-c2ccccc2)n1C`, with under 4.34. Take `CCN(CC)CCOCCOC(=O)C(CC)(CC)c1ccccc1.O=C(O)CC(O)(CC(=O)O)C(=O)O`: the pIC50 is under 4.34.

By pIC50 is commonly meant the IC50 on a negative log10 scale, so that one unit is a factor of ten. Lower therefore signals a large IC50.
